Results taken from patent publication US7803757B2, “Peptides based on the sequence of human lactoferrin and their use” (PharmaSurgics in Sweden AB, priority 1998, dated 2010).
Bridge positions count the residues as written; N and C are the ends. Ends that are not written are not given here.

Columns and labels:
E. coli O14 [1] = test: bactericidal and growth inhibitory activity, E. coli O14 (Example 9); assay type: cell-based
Protocol: E. coli O14 was incubated as described above in the presence of the peptides during 2 hours. The bactericidal activity was measured in the same way as described above.
The inhibition of growth was measured spectrophotometrically after incubation during 20 hours.

E. coli O6K5 = test: urinary tract infection in mice, bacteria (CFU) in kidney (Example 6); assay type: in vivo; conditions: Exp II, mouse strain C3H/Tif, 500 μg per mouse orally 30 minutes after instillation, 24 hours
Protocol: E. coli O6K5 was instilled into the urinary bladder of mice. 30 minutes after instillation the different agents specified in table 5 were administered orally in an amount of 500 μg per mouse and 24 hours after instillation the number of bacteria (CFU) present in bladder and in kidney was determined.
The control group consisted of 10 animals in experiment I and of 23 animals in experiment II. The animals in the control groups were given tap water instead of peptide or hLF.

C. albicans = test: concentration for killing of 99% of C. albicans at different pH (Example 13, FIG. 2); assay type: cell-based; conditions: FIG. 2, different pH
From the text: In this example the concentrations needed of three peptides according to the invention for killing of 99% of C. albicans at different pH was compared to a reference peptide. The peptides according to the invention were peptide 2 (linear), peptide 3 (cyclic), peptide 4 (linear), peptide 5 (cyclic) and peptide 7 (lactam bridged), all capped. The reference peptides used were an uncapped cyclic form and an uncapped linear form of a Morinaga peptide, Morinaga 24 and 25. The results are illustrated in FIG. 2.

[2] = system: Candida albicans ATCC 64549; test: fungicidal and growth inhibitory activity, Candida albicans ATCC 64549 (Example 8); assay type: cell-based
Protocol: Candida albicans ATCC 64549 (1·10^5/ml) was incubated in the presence of the peptides during 2 hours at 37° C. in diluted growth medium (BHI, twofold serial dilutions starting with 50 μg/ml). The fungicidal activity was measured by culturing 5 μl from each incubation well on Saboroud agar plates.
The inhibition of growth was measured spectrophotometrically after 20 hours of incubation.

Candida krusei = test: fungicidal activity against Candida krusei strains (Example 4); assay type: cell-based; conditions: Exp. I
Protocol: (§1) In this example the fungicidal activity of the peptides according to the invention was tested and compared to the fungicidal activity of human lactoferrin. Different concentrations of hLF, peptide 3 and peptide 4 were incubated with different strains of Candida albicans and Candida krusei during 1-2 hours at 37° C. in 0.05 mM KCl at pH 7.0 at two different occasions—experiment I and II, respectively. After incubation samples were taken for plating on Saboroud plates.

E. coli O14 [3] = test: bactericidal activity, incubation with E. coli O14 (Example 3, exp. I and III); assay type: cell-based
Protocol: Human lactoferrin (hLF), peptide 3, and peptide 4, respectively, were incubated with two different strains of E. coli, E. coli O14 (experiment I) and O6K5 (experiment II), in diluted growth medium ( 1/100 BHI—brain heart infusion) for 2 hours. The peptides were also incubated with E. coli O14 in 0.05 mM KCl (pH 7) without any growth medium (experiment III). Different concentrations of the peptides were tested.
After the incubation, samples were taken for bacterial plating. Serial dilutions of five- and fourfold steps were used in experiments I and II, respectively, and of twofold steps in experiment III.
The concentrations of the different peptides required for killing 100% (experiments I and II) or 90% (experiment III) of the bacteria are given in table 2.

Candida albicans = test: fungicidal activity against Candida albicans strains (Example 4); assay type: cell-based
Protocol: as §1

[4] = system: LPS-induced IL-6 response in a monocytic cell line (THP-1); test: inhibition of LPS-induced IL-6 response in THP-1 cells (Example 5); assay type: cell-based; conditions: IL-6 response in THP-1 cells, agent added 30 minutes after LPS
Protocol: In this example an in vitro test was performed to study the anti-inflammatory activity of the peptides according to the invention. More precisely, the inhibitory effect of the peptides according to the invention on the LPS-induced IL-6 response in a monocytic cell line (THP-1) was studied and compared to the effect of human lactoferrin by use of the method described by I. Mattsby-Baltzer et al., Pediatr. Res. 40:257-262, 1996. The IL-6 response in the THP-1 cells was induced by addition of LPS. hLF, peptide 3 and peptide 4, respectively, were added 30 minutes after LPS.

[5] = system: reference strain of S. aureus; test: bactericidal activity, reference strain of S. aureus (Example 19); assay type: cell-based; conditions: reference strain of S. aureus 5.0×10^5 per ml, 2 hours at 37° C., lowest concentration tested 6.25 μg/ml
Protocol: In this example the bactericidal activity of three of the peptides according to the invention was studied in a test with a reference strain of S. aureus. A bacterial solution with a concentration of 5.0×10^5 S. aureus bacterial per ml was used. The concentration of each peptide needed to kill 99% of the bacteria (MMC99%) was determined after 2 hours of incubation at 37° C. The lowest concentration tested was 6.25 μg/ml.

## Peptide 3: cyclic form of SEQ. ID. NO. 2, disulphide bridge between the two cysteines in positions 5 and 22 (Ac-EATKCFQWQRNMRKVRGPPVSCIKR; disulfide 5-22)
E. coli O14 [1]; E. coli O14, 2 hours
  Concentration of agent for 100% killing: 12.5 µg/mL
E. coli O14 [1]; E. coli O14, spectrophotometrically after 20 hours
  Concentration of agent for inhibition of growth: 3.1 µg/mL
E. coli O6K5
  Statistical comparison of treatment group with control group of the number of bacteria, CFU, present in kidney (p, Mann-Whitney): p = 0.0574
C. albicans
  concentration needed for killing of 99% of C. albicans, compared with the capped cyclic peptides (in words): better effects than the capped cyclic peptides
[2]; C. albicans ATCC 64549 1·10^5/ml, 2 hours 37° C., diluted BHI
  Concentration of agent for 100% killing: 6.2 µg/mL
[2]; C. albicans ATCC 64549, spectrophotometrically after 20 hours
  Concentration of agent for inhibition of growth: 6.2 µg/mL
Candida krusei; C. krusei CCUG 969
  ratio hLF/pep. (concentration for 99% killing): 20
Candida krusei; C. krusei CCUG 969, 0.05 mM KCl pH 7.0
  Concentration of agent for 99% killing: 1.25 µg/mL
Candida krusei; C. krusei CCUG 35849
  ratio hLF/pep. (concentration for 99% killing): 21
Candida krusei; C. krusei CCUG 35849, 0.05 mM KCl pH 7.0
  Concentration of agent for 99% killing: 0.6 µg/mL
E. coli O14 [3]; Exp. I: 100% killing, E. coli O14, 1/100 BHI, 2 hours
  Concentration of agent for 100%/90% killing: 4.4 µg/mL
E. coli O14 [3]; Exp. III: 90% killing, E. coli O14, 0.05 mM KCl (pH 7) without growth medium
  Concentration of agent for 100%/90% killing: 12.5 µg/mL
Candida albicans; Exp. I, C. albicans ATCC 64549
  ratio hLF/pep. (concentration for 99% killing): >83
Candida albicans; Exp. I, C. albicans ATCC 64549, 0.05 mM KCl pH 7.0, 1-2 hours 37° C.
  Concentration of agent for 99% killing: 0.6 µg/mL
Candida albicans; Exp. I, C. albicans CCUG 90028
  ratio hLF/pep. (concentration for 99% killing): >83
Candida albicans; Exp. I, C. albicans CCUG 90028, 0.05 mM KCl pH 7.0
  Concentration of agent for 99% killing: 0.6 µg/mL
Candida albicans; Exp. II, C. albicans ATCC 64549
  ratio hLF/pep. (concentration for 99% killing): >133
Candida albicans; Exp. II, C. albicans ATCC 64549, 0.05 mM KCl pH 7.0
  Concentration of agent for 99% killing: 1.5 µg/mL
Candida albicans; Exp. II, C. albicans CCUG 599
  ratio hLF/pep. (concentration for 99% killing): >133
Candida albicans; Exp. II, C. albicans CCUG 599, 0.05 mM KCl pH 7.0
  Concentration of agent for 99% killing: 1.5 µg/mL
Candida albicans; Exp. II, C. albicans CCUG 1759
  ratio hLF/pep. (concentration for 99% killing): >133
Candida albicans; Exp. II, C. albicans CCUG 1759, 0.05 mM KCl pH 7.0
  Concentration of agent for 99% killing: 1.5 µg/mL
[4]
  % inhibition of LPS response: 17%

## SEQ. ID. NO. 36: second embodiment, sequence from a position 13-25 to position 31 of human lactoferrin; sequence only in sequence listing (TKCFQWQRNMRKVR; ends and bridges not checked)
[5]
  MMC99%: ≦6.25 μg/ml

## SEQ. ID. NO. 98: 14 amino acids, modified positions 18-31 of human lactoferrin; sequence only in sequence listing (TKKFQWQRNMRKVR)
[5]
  MMC99%: ≦6.25 μg/ml
